From ChEMBL document CHEMBL3045404, “Structure-Activity Relationships of 2-Chloropyridine-3-carboxamide Fungicides” (J Pestic Sci, 1992) come the findings set out here.

What is called EC50 is the concentration needed to bring the measured effect to its halfway point. A lower EC50 goes with higher potency in that assay.

One test concerns Rhizoctonia solani. As to the kind of experiment: Antifungal activity against Rhizoctonia solani infested in rice seedling incubated for 40 hr in moist chamber followed by incubation for 3 days in greenhouse conditions. The format is functional, organism-based.
Another test relates to Botrytis cinerea. As to the kind of experiment: Antifungal activity against Botryotinia fuckeliana infested in cucumber seedling cotyledons after 4 days by pot test. The format is functional.

Molecules are shown by their SMILES. Where only a bound is given, the exact number is not on record here.

In the test on Rhizoctonia solani, `CC1CC(C)(C)c2cccc(NC(=O)c3cccnc3Cl)c21` (stereo unspecified) had an EC50 of 7.76 µM. The pEC90 in the test on Botrytis cinerea came to 4.7.
For `O=C(Nc1ccccc1-c1ccccc1)c1cccnc1Cl`, the EC50 in the test with Rhizoctonia solani was greater than 6310 µM. Moreover, the pEC90 in the test with Botrytis cinerea is recorded as 2.8.
`O=C(Nc1cccc2c1CCC2)c1cccnc1Cl` had an EC50 with Rhizoctonia solani of 692 µM. In addition, the pEC90 in the test with Botrytis cinerea came to 2.68.
The compound `O=C(Nc1ccccc1)c1cccnc1Cl` gave an EC50 in the test on Rhizoctonia solani of 1000 µM. Further, in the test with Botrytis cinerea, the pEC90 was 2.2.
`CCc1cccc(NC(=O)c2cccnc2Cl)c1`: in the test with Rhizoctonia solani, the EC50 is 158 µM. Moreover, the pEC90 in the test with Botrytis cinerea is on record as less than 2.2.
In turn, `CCOc1cccc(NC(=O)c2cccnc2Cl)c1` had a concentration giving a half-maximal response (EC50) in the test with Rhizoctonia solani of 85.1 µM. This compound also came in with a pEC90 in the test with Botrytis cinerea of less than 2.2.
As to `CC(C)Oc1cccc(NC(=O)c2cccnc2Cl)c1`, the response in the test on Rhizoctonia solani was half-maximal at 57.5 µM (EC50). Moreover, in the test with Botrytis cinerea, the pEC90 is less than 2.2.
In the test on Rhizoctonia solani, `CCc1ccccc1NC(=O)c1cccnc1Cl` gave a concentration giving a half-maximal response (EC50) of 2000 µM. Further, the pEC90 in the test with Botrytis cinerea is reported as 2.57.
`CC(C)c1ccccc1NC(=O)c1cccnc1Cl` had a concentration giving a half-maximal response (EC50) in the test with Rhizoctonia solani of 1510 µM. The same compound displayed a pEC90 in the test on Botrytis cinerea of 3.19.
As to `CCOc1ccccc1NC(=O)c1cccnc1Cl`, the EC50 in the test on Rhizoctonia solani is 1100 µM. In the test on Botrytis cinerea, this compound registered a pEC90 of 2.48.
Taken in the same sequence, the figures for `C=C(C)c1ccccc1NC(=O)c1cccnc1Cl` were 1170 µM and 3.78.
In the case of `CCOc1c(NC(=O)c2cccnc2Cl)cccc1C(C)C`, in the test on Rhizoctonia solani, the EC50 was 112 µM. This compound also displayed a pEC90 with Botrytis cinerea of 3.32.
Take `CCc1c(C)cccc1NC(=O)c1cccnc1Cl`: the EC50 in the test on Rhizoctonia solani was 724 µM. The compound also yielded a pEC90 in the test with Botrytis cinerea of 2.96.
In the same order, the values of `CC1CCc2cccc(NC(=O)c3cccnc3Cl)c21` (stereo unspecified) are 631 µM and 4.15.
As to `CC1Cc2cccc(NC(=O)c3cccnc3Cl)c2C1` (stereo unspecified), in the test with Rhizoctonia solani, the EC50 was 692 µM. The same compound yielded a pEC90 in the test on Botrytis cinerea of 3.11.
In the case of `CC1CCc2c(NC(=O)c3cccnc3Cl)cccc21` (stereo unspecified), in the test with Rhizoctonia solani, the EC50 is 52.5 µM. In addition, the pEC90 in the test with Botrytis cinerea is reported as 3.03.
Regarding `CC1(C)CCc2c(NC(=O)c3cccnc3Cl)cccc21`, the EC50 with Rhizoctonia solani was 28.8 µM. Also, in the test on Botrytis cinerea, the pEC90 is on record as 2.97.
`CCC1CC(C)(C)c2cccc(NC(=O)c3cccnc3Cl)c21` (stereo unspecified) had an EC50 in the test on Rhizoctonia solani of 7.24 µM. The compound also yielded a pEC90 in the test with Botrytis cinerea of 4.75.
`CCC1CC(C)(CC)c2cccc(NC(=O)c3cccnc3Cl)c21` (stereo unspecified) had an EC50 in the test on Rhizoctonia solani of 33.9 µM. In addition, the pEC90 in the test on Botrytis cinerea was 4.58.
In the test with Rhizoctonia solani, `CC1SCc2cccc(NC(=O)c3cccnc3Cl)c21` (stereo unspecified) showed an EC50 of 933 µM. In the test with Botrytis cinerea, this compound gave a pEC90 of 2.93.
In the same order, the values of `CC1OCc2cccc(NC(=O)c3cccnc3Cl)c21` (stereo unspecified) are 525 µM and 2.93.
The compound `CC1OC(C)(C)c2cccc(NC(=O)c3cccnc3Cl)c21` (stereo unspecified) showed an EC50 in the test with Rhizoctonia solani of 14.1 µM. For the same compound, in the test with Botrytis cinerea, the pEC90 turned out to be 3.93.
Taken in the same sequence, the figures for `CCC1OC(C)(C)c2cccc(NC(=O)c3cccnc3Cl)c21` (stereo unspecified) were 12.3 µM and 3.55.
In the test with Rhizoctonia solani, `O=C(Nc1cccc2c1OCC2)c1cccnc1Cl` gave an EC50 of 1620 µM. The same compound showed a pEC90 with Botrytis cinerea of less than 2.2.
The compound `CC1(C)Cc2cccc(NC(=O)c3cccnc3Cl)c2O1` had an EC50 in the test on Rhizoctonia solani of 214 µM. Moreover, the pEC90 with Botrytis cinerea was found to be 3.84.
`CCCCC1(CC)Cc2cccc(NC(=O)c3cccnc3Cl)c2O1` (stereo unspecified): a half-maximal response in the test on Rhizoctonia solani (EC50) required 1550 µM. The compound further had a pEC90 with Botrytis cinerea of 3.04.
Turning to `Cc1oc2cccc(NC(=O)c3cccnc3Cl)c2c1C`, the midpoint of the response with Rhizoctonia solani, the EC50, lay at 603 µM. This compound yielded a pEC90 in the test with Botrytis cinerea of less than 2.2.
For `CC1Oc2cccc(NC(=O)c3cccnc3Cl)c2C1C` (stereo unspecified), the EC50 in the test with Rhizoctonia solani is 631 µM. Besides, the pEC90 in the test with Botrytis cinerea was less than 2.2.
Take `CC1(C)Oc2cccc(NC(=O)c3cccnc3Cl)c2O1`: in the test with Rhizoctonia solani, the EC50 was 759 µM. Also, the pEC90 in the test with Botrytis cinerea turned out to be 2.76.
For `CC1(C)CCc2cccc(NC(=O)c3cccnc3Cl)c2O1`, the response in the test on Rhizoctonia solani was half-maximal at 1450 µM (EC50). Besides, the pEC90 with Botrytis cinerea came out at 3.66.
`CCC1(CC)CCc2cccc(NC(=O)c3cccnc3Cl)c2O1` showed an EC50 in the test on Rhizoctonia solani of 1150 µM. For the same compound, the pEC90 in the test with Botrytis cinerea amounted to 4.41.
For `CC1(C)OCc2cccc(NC(=O)c3cccnc3Cl)c2O1`, the EC50 in the test with Rhizoctonia solani is 1450 µM. Besides, the pEC90 with Botrytis cinerea came to 3.29.
In the test with Rhizoctonia solani, `CCC1(C)Oc2c(NC(=O)c3cccnc3Cl)cccc2C(C)O1` (stereo unspecified) gave an EC50 of 13.2 µM. The same compound had a pEC90 in the test with Botrytis cinerea of 3.57.
